In ChEMBL document CHEMBL1127423, “An evaluation of the antirhinoviral activity of acetylfuran replacements for 3-methylisoxazoles. Are 2-acetylfurans bioisosteres for 3-methylisoxazoles?” (J Med Chem, 1994):
≈ marks a conversion by molar mass, not a printed value. Calls of active or inactive are those of the source. No cut-off for these calls is given here.

Experiments:
Human rhinovirus sp. [1] = assay: Tested for in vitro antiviral activity against Human rhinovirus (HRV)-14; type: functional
Human rhinovirus sp. [2] = assay: Antirhinoviral activity calculated for mean of fifteen serotypes (HRV-1A, -1B, -2, -6, -14, -15, -21, -22, -25, -30, -41, --50, -67, -86, -89); type: functional
Human rhinovirus sp. [3] = assay: Compound was tested in vitro for minimal inhibitory constant against 80% of fifteen human rhinovirus serotypes
[4] = Partition coefficient (logP) (HPLC); type: physicochemical; conditions: octanol/water
Human rhinovirus sp. [5] = assay: Antirhinoviral activity calculated for mean of fifteen serotypes (HRV-1A, -1B, -2, -6, -14, -15, -21, -22, -25, -30, -41, --50, -67, -86, -89); inactive against HRV-1A, -6, -14,-67; type: functional, organism-based
Human rhinovirus sp. [6] = assay: Compound was tested in vitro for minimal inhibitory constant against HRV-14; IA= Inactive; type: functional, organism-based
Human rhinovirus sp. [7] = assay: tested for in vitro antiviral activity against Human rhinovirus (HRV)-14; type: functional
Human rhinovirus sp. [8] = assay: Tested for minimal inhibitory concentration against Human rhinovirus serotype 67 by plaque reduction assay; type: functional
Human rhinovirus sp. [9] = assay: Tested for minimal inhibitory concentration against Human rhinovirus serotype 1A by plaque reduction assay; type: functional
Human rhinovirus sp. [10] = assay: Tested for minimal inhibitory concentration against Human rhinovirus serotype 86 by plaque reduction assay; type: functional
Human rhinovirus sp. [11] = assay: Tested for minimal inhibitory concentration against Human rhinovirus serotype 30 by plaque reduction assay; type: functional
Human rhinovirus sp. [12] = assay: Tested for minimal inhibitory concentration against Human rhinovirus serotype 14 by plaque reduction assay; type: functional
Human rhinovirus sp. [13] = assay: Tested for minimal inhibitory concentration against Human rhinovirus serotype 1B by plaque reduction assay; inactive; type: functional, organism-based
Human rhinovirus sp. [14] = assay: Tested for minimal inhibitory concentration against Human rhinovirus serotype 89 by plaque reduction assay; type: functional
Human rhinovirus sp. [15] = assay: Tested for minimal inhibitory concentration against Human rhinovirus serotype 50 by plaque reduction assay; type: functional
Human rhinovirus sp. [16] = assay: Tested for minimal inhibitory concentration against Human rhinovirus serotype 6 by plaque reduction assay; type: functional
Human rhinovirus sp. [17] = assay: Tested for minimal inhibitory concentration against Human rhinovirus serotype 22 by plaque reduction assay; type: functional
Human rhinovirus sp. [18] = assay: Tested for minimal inhibitory concentration against Human rhinovirus serotype 15 by plaque reduction assay; type: functional
Human rhinovirus sp. [19] = assay: Tested for minimal inhibitory concentration against Human rhinovirus serotype 21 by plaque reduction assay; type: functional
Human rhinovirus sp. [20] = assay: Tested for minimal inhibitory concentration against Human rhinovirus serotype 41 by plaque reduction assay; inactive; type: functional, organism-based
Human rhinovirus sp. [21] = assay: Tested for minimal inhibitory concentration against Human rhinovirus serotype 25 by plaque reduction assay; inactive; type: functional, organism-based
Human rhinovirus sp. [22] = assay: Tested for minimal inhibitory concentration against Human rhinovirus serotype 2 by plaque reduction assay; type: functional
Human rhinovirus sp. [23] = assay: Compound was tested in vitro for minimal inhibitory constant against HRV-14; high capacity tissue culture infectious dose; type: functional, organism-based
Human rhinovirus sp. [24] = assay: Antirhinoviral activity calculated for mean of fifteen serotypes (HRV-1A, -1B, -2, -6, -14, -15, -21, -22, -25, -30, -41, --50, -67, -86, -89); inactive against HRV-6,-41,-67,-86; type: functional, organism-based
Human rhinovirus sp. [25] = assay: Compound was tested in vitro for minimal inhibitory constant against HRV-14; inactive against HRV-1A, -6, -14,-67; type: functional, organism-based
Human rhinovirus sp. [26] = assay: Tested for in vitro antiviral activity against Human rhinovirus (HRV)-14; inactive against HRV-1A, -6, -14,-67; type: functional, organism-based
Human rhinovirus sp. [27] = assay: tested for minimal inhibitory concentration against Human rhinovirus serotype 14 by plaque reduction assay; type: functional
Human rhinovirus sp. [28] = assay: tested for minimal inhibitory concentration against Human rhinovirus serotype 50 by plaque reduction assay; type: functional
Human rhinovirus sp. [29] = assay: tested for minimal inhibitory concentration against Human rhinovirus serotype 21 by plaque reduction assay; type: functional
Human rhinovirus sp. [30] = assay: tested for minimal inhibitory concentration against Human rhinovirus serotype 30 by plaque reduction assay; type: functional
Human rhinovirus sp. [31] = assay: tested for minimal inhibitory concentration against Human rhinovirus serotype 41 by plaque reduction assay; type: functional
Human rhinovirus sp. [32] = assay: tested for minimal inhibitory concentration against Human rhinovirus serotype 86 by plaque reduction assay; type: functional
Human rhinovirus sp. [33] = assay: tested for minimal inhibitory concentration against Human rhinovirus serotype 22 by plaque reduction assay; type: functional
Human rhinovirus sp. [34] = assay: tested for minimal inhibitory concentration against Human rhinovirus serotype 25 by plaque reduction assay; type: functional
Human rhinovirus sp. [35] = assay: tested for minimal inhibitory concentration against Human rhinovirus serotype 2 by plaque reduction assay; type: functional
Human rhinovirus sp. [36] = assay: tested for minimal inhibitory concentration against Human rhinovirus serotype 6 by plaque reduction assay; type: functional
Human rhinovirus sp. [37] = assay: tested for minimal inhibitory concentration against Human rhinovirus serotype 1B by plaque reduction assay; type: functional
Human rhinovirus sp. [38] = assay: tested for minimal inhibitory concentration against Human rhinovirus serotype 15 by plaque reduction assay; type: functional
Human rhinovirus sp. [39] = assay: tested for minimal inhibitory concentration against Human rhinovirus serotype 89 by plaque reduction assay; type: functional
Human rhinovirus sp. [40] = assay: tested for minimal inhibitory concentration against Human rhinovirus serotype 67 by plaque reduction assay; type: functional
Human rhinovirus sp. [41] = assay: tested for minimal inhibitory concentration against Human rhinovirus serotype 1A by plaque reduction assay; type: functional

MIC80 (Human rhinovirus sp. [3])	logP [4]	Structure (SMILES)	Activity (Human rhinovirus sp. [1])	Activity (Human rhinovirus sp. [2])	also measured
0.8 µM (≈ 0.306 µg/mL)	3.7	CC(=O)c1ccc(CCCCCOc2c(C)cc(-c3nnn(C)n3)cc2C)o1	1.2 µM	0.6 µM	–
–	3.5	Cc1cc(-c2nnn(C)n2)cc(C)c1OCCCCCc1ccc(C=O)o1	–	–	Activity (Human rhinovirus sp. [5]): inactive; MIC80 (Human rhinovirus sp. [6]): inactive; Activity (Human rhinovirus sp. [7]): 27 µM
7 µM (≈ 2.2 µg/mL)	–	Cc1cc(CCCCCOc2ccc(C3=NCCO3)cc2)on1	0.7 µM	–	MIC (Human rhinovirus sp. [8]): 2.4 µM (≈ 0.755 µg/mL); MIC (Human rhinovirus sp. [9]): 7 µM (≈ 2.2 µg/mL); MIC (Human rhinovirus sp. [10]): 0.1 µM (≈ 0.0314 µg/mL); Activity (Human rhinovirus sp. [5]): inactive; MIC (Human rhinovirus sp. [11]): 0.3 µM (≈ 0.0943 µg/mL); MIC (Human rhinovirus sp. [12]): 0.7 µM (≈ 0.22 µg/mL); MIC (Human rhinovirus sp. [13]): inactive; MIC (Human rhinovirus sp. [14]): 0.4 µM (≈ 0.126 µg/mL); MIC (Human rhinovirus sp. [15]): 1.5 µM (≈ 0.472 µg/mL); MIC (Human rhinovirus sp. [16]): 0.06 µM (≈ 0.0189 µg/mL); MIC (Human rhinovirus sp. [17]): 0.9 µM (≈ 0.283 µg/mL); MIC (Human rhinovirus sp. [18]): 1.5 µM (≈ 0.472 µg/mL); MIC (Human rhinovirus sp. [19]): 1.2 µM (≈ 0.377 µg/mL); MIC (Human rhinovirus sp. [20]): inactive; MIC (Human rhinovirus sp. [21]): inactive; MIC (Human rhinovirus sp. [22]): 1.1 µM (≈ 0.346 µg/mL)
–	–	Cc1ccc(CCCOc2c(C)cc(-c3nnn(C)n3)cc2C)o1	30 µM	–	MIC80 (Human rhinovirus sp. [23]): high capacity tissue culture infectious dose; Activity (Human rhinovirus sp. [24]): inactive
–	–	Cc1ccc(CCCOc2c(C)cc(-c3noc(C)n3)cc2C)o1	–	–	Activity (Human rhinovirus sp. [5]): inactive; Activity (Human rhinovirus sp. [25]): inactive; Activity (Human rhinovirus sp. [26]): inactive
1 µM (≈ 0.341 µg/mL)	–	CC(=O)c1ccc(CCCCCOc2ccc(C3=NCCO3)cc2)o1	1.1 µM	0.9 µM	MIC (Human rhinovirus sp. [27]): 1 µM (≈ 0.341 µg/mL); MIC (Human rhinovirus sp. [28]): 0.2 µM (≈ 0.0683 µg/mL); MIC (Human rhinovirus sp. [29]): 0.4 µM (≈ 0.137 µg/mL); MIC (Human rhinovirus sp. [30]): 0.1 µM (≈ 0.0341 µg/mL); MIC (Human rhinovirus sp. [31]): 2.2 µM (≈ 0.751 µg/mL); MIC (Human rhinovirus sp. [32]): 0.4 µM (≈ 0.137 µg/mL); MIC (Human rhinovirus sp. [33]): 1.6 µM (≈ 0.546 µg/mL); MIC (Human rhinovirus sp. [34]): 4.5 µM (≈ 1.54 µg/mL); MIC (Human rhinovirus sp. [35]): 0.5 µM (≈ 0.171 µg/mL); MIC (Human rhinovirus sp. [36]): 0.3 µM (≈ 0.102 µg/mL); MIC (Human rhinovirus sp. [37]): 0.3 µM (≈ 0.102 µg/mL); MIC (Human rhinovirus sp. [38]): 0.7 µM (≈ 0.239 µg/mL); MIC (Human rhinovirus sp. [39]): 0.05 µM (≈ 0.0171 µg/mL); MIC (Human rhinovirus sp. [40]): 1 µM (≈ 0.341 µg/mL); MIC (Human rhinovirus sp. [41]): 0.2 µM (≈ 0.0683 µg/mL)
0.4 µM (≈ 0.131 µg/mL)	3.2	Cc1cc(CCCOc2c(C)cc(-c3nnn(C)n3)cc2C)on1	1.7 µM	0.5 µM	–
0.9 µM (≈ 0.345 µg/mL)	4.6	Cc1cc(CCCCCOc2c(Cl)cc(C3=NCCO3)cc2Cl)on1 [WIN-54954]	2.3 µM	0.7 µM	–
0.5 µM (≈ 0.177 µg/mL)	3.2	CC(=O)c1ccc(CCCOc2c(C)cc(-c3nnn(C)n3)cc2C)o1	0.5 µM	0.3 µM	–
0.7 µM (≈ 0.287 µg/mL)	4.6	CC(=O)c1ccc(CCCCCOc2c(Cl)cc(C3=NCCO3)cc2Cl)o1	2 µM	0.5 µM	–
1.4 µM (≈ 0.661 µg/mL)	–	Cc1cc(CCCCCOc2c(Br)cc(C3=NCCO3)cc2Br)on1	2 µM	0.6 µM	–
0.2 µM (≈ 0.0655 µg/mL)	–	Cc1cc(CCCOc2c(C)cc(-c3noc(C)n3)cc2C)on1	0.2 µM	0.1 µM	–
0.6 µM (≈ 0.213 µg/mL)	3.6	Cc1cc(CCCCCOc2c(C)cc(-c3nnn(C)n3)cc2C)on1	0.8 µM	0.5 µM	–
0.9 µM (≈ 0.449 µg/mL)	–	CC(=O)c1ccc(CCCCCOc2c(Br)cc(C3=NCCO3)cc2Br)o1	3.3 µM	0.7 µM	–
0.4 µM (≈ 0.142 µg/mL)	–	CC(=O)c1ccc(CCCOc2c(C)cc(-c3noc(C)n3)cc2C)o1	0.5 µM	0.2 µM	–
